# Results from patent US20220056075A1, “METHOD FOR TREATING OPIOID USE DISORDER” (THE ADMINISTRATORS OF THE TULANE EDUCATIONAL FUND, priority 2019, published 2022).
# Columns and labels:
# [1] = test system: Male Sprague Dawley rats; assay: Locomotor sensitization during CPP conditioning sessions; assay type: in vivo, rat; settings: 1.8, 3.2, 5.6 mg/Kg i.v., 5 daily injections, compared to vehicle
# Procedure: (§1) Conditioned Place Preference (CPP) and locomotor activity: Standard CPP chambers (TSE; Chesterfield, Mo.) were used to measure baseline activity and conditioning trials. Baseline activity was measured over 2 days with 4 trials per day (2 in the AM, and 2 in the PM) lasting 20 min each. […] Conditioning trials were conducted for 5 days and tested in an unbiased manner such that drug/environment pairings were counterbalanced for time of drug injection (AM or PM) and compartment (preferred or non-preferred) based on baseline activity. […] This indicates a lack of carry-over effects of drug between sessions. One day following the last conditioning trial, a 20 min test trial was conducted in the same manner as baseline trials in which rats were free to explore both compartments. Change in time spent exploring the drug-paired compartment (test-baseline) was used to indicate preference (or aversion) to the compartment. Approximately 20 min following the final session, rats were perfused and brain samples were taken for immunohistochemical analysis (below). Locomotor activity was assessed by infrared light beams located in the conditioning compartments and the start box. […] Data were recorded in meters and an assessment of locomotor sensitization was made by subtracting the first session from the final session.
# (§2) Experimenters were blinded to treatment groups.
# [2] = cumulative doses producing maximum antinociceptive effects; cited from earlier work
# [3] = test system: male and female rats; assay: Naloxone-induced conditioned place aversion (CPA); assay type: in vivo, rat; settings: i.v. morphine 5.6 mg/Kg or ZH853 4.2 mg/Kg, naloxone 1 mg/Kg s.c. 4 h later
# Procedure: Four hours later they received s.c. naloxone (1 mg/Kg) and were confined to one side of the apparatus (counterbalanced) for 20 min. The following day the animals received vehicle-then-saline rather than drug-then-naloxone. This cycle (drug+4 h+nlx+next day vehicle+saline) was repeated once, and the next day the animals had access to the entire apparatus (Post-cond).
# To assess whether ZH853 induces the negative affect typical of opioid withdrawal, the conditioned place aversion (CPA) test was conducted.
# [4] = test system: Male Sprague-Dawley rats; assay: Reinstatement of morphine-induced conditioned place preference; settings: priming dose 1.8 mg/Kg, 20 min, vs baseline
# Procedure: Male Sprague-Dawley rats were exposed to a conditioned place preference (CPP) apparatus for two sessions to determine baseline (BL) preference for 2 distinct, unbiased chambers. […] The animals then underwent extinction procedures consisting of confinement for 45 min in the previously drug- and vehicle-paired chambers for 7 days.
# [5] = test system: Male Sprague Dawley rats; assay: Conditioned place preference (CPP), 5-day procedure; assay type: in vivo, rat; settings: 5 days of conditioning, 1.8, 3.2, 5.6 mg/Kg i.v.
# Procedure: as §1, §2
structure (smiles),measurement,setting,value
"NC(=O)CNC(=O)[C@@H]1CCC(=O)NCCCC[C@@H](NC(=O)[C@@H](N)Cc2ccc(O)cc2)C(=O)N[C@@H](Cc2c[nH]c3ccccc23)C(=O)N[C@@H](Cc2ccccc2)C(=O)N1 [ZH853, Tyr-c[D-Lys-Trp-Phe-Glu]-Gly-NH2]","locomotor sensitization (LS), day 5 minus day 1",[1],did not produce LS at any dose tested
same,motor impairment on the Rotarod,[2],lack of motor impairment
same,naloxone-induced place aversion,[3],did not produce a place aversion
same,reinstatement of morphine CPP after extinction,[4],scores not significantly different from baseline
same,conditioned place preference (CPP) or aversion,[5],did not produce CPP (or aversion) at any dose
